From ChEMBL document CHEMBL3108733, “Design, synthesis, and evaluation of hydroxamic acid derivatives as promising agents for the management of Chagas disease” (J Med Chem, 2014)
Values belong to the compound of their own block, whether it stands above or below them. Calls of active or inactive are those of the source. No cut-off for these calls is given here.

Legend:
Trypanosoma cruzi [1] = assay: Antitrypanosomal activity against Trypanosoma cruzi Y epimastigotes assessed as growth inhibition at 32 uM after 5 days by Neubauer chamber counting analysis relative to control; format: functional
Trypanosoma cruzi [2] = assay: Trypanocidal activity against Trypanosoma cruzi Y infected in BALB/c mouse assessed as mouse survival at 100 mg/kg treated from day 2 to day 9 post-infection; format: functional
[3] = Inhibition of Trypanosoma cruzi recombinant carbonic anhydrase-mediated CO2 hydration by stopped-flow assay
Carbonic anhydrase 1 = Carbonic anhydrase 1 (Homo sapiens, UniProt P00915); assay: Inhibition of human recombinant carbonic anhydrase-1-mediated CO2 hydration by stopped-flow assay
Carbonic anhydrase 2 = Carbonic anhydrase 2 (Homo sapiens, UniProt P00918); assay: Inhibition of human recombinant carbonic anhydrase-2-mediated CO2 hydration by stopped-flow assay
Trypanosoma cruzi [4] = assay: Antitrypanosomal activity against Trypanosoma cruzi Dm28c epimastigotes after 5 days by resazurin dye-based assay; settings: 120 h
Trypanosoma cruzi [5] = assay: Antitrypanosomal activity against Trypanosoma cruzi Y infected in BALB/c mouse peritoneal macrophages assessed as reduction of parasite burden after 48 hrs by Giemsa staining-based Neubauer chamber counting analysis
[6] = Cytotoxicity against BALB/c mouse peritoneal macrophages after 24 hrs by MTT/LDH assay; format: cell-based, Peritoneal macrophage cell
Trypanosoma cruzi [7] = assay: Antitrypanosomal activity against Trypanosoma cruzi Dm28c trypomastigotes at 16 uM after 48 hrs by Neubauer chamber counting analysis relative to control; format: functional
Trypanosoma cruzi [8] = assay: Antitrypanosomal activity against Trypanosoma cruzi Y trypomastigotes at 16 uM after 48 hrs by Neubauer chamber counting analysis relative to control; format: functional
Trypanosoma cruzi [9] = settings: Y, 16 uM
Description: Inhibition of MMP9 in Trypanosoma cruzi Y epimastigotes assessed as effect on protein level at 16 uM after 5 days by Western blotting analysis

Trypanosoma cruzi [10] = assay: Trypanocidal activity against Trypanosoma cruzi Y infected in BALB/c mouse assessed as mouse survival at 25 mg/kg treated from day 2 to day 9 post-infection; format: functional
Trypanosoma cruzi [11] = settings: Y, 32 to 64 uM
Description: Inhibition of metallopeptidase in Trypanosoma cruzi Y epimastigotes at 32 to 64 uM after 12 hrs by gelatin zymography assay

Trypanosoma cruzi [12] = assay: Antitrypanosomal activity against Trypanosoma cruzi Dm28c trypomastigotes after 48 hrs by Neubauer chamber counting analysis
Trypanosoma cruzi [13] = assay: Trypanocidal activity against Trypanosoma cruzi Y infected in BALB/c mouse assessed as reduction in parasitemia at 25 mg/kg treated from day 2 to day 9 post-infection measured on day 6 post-infection; format: functional, organism-based; parameters: dose 25 mg/kg
Trypanosoma cruzi [14] = assay: Antitrypanosomal activity against Trypanosoma cruzi Y trypomastigotes after 48 hrs by Neubauer chamber counting analysis
Trypanosoma cruzi [15] = assay: Antitrypanosomal activity against Trypanosoma cruzi Y infected in human THP1 cells assessed as decrease in intracellular amastigotes at 2 uM after 48 hrs by Giemsa staining-based Neubauer chamber counting analysis; format: functional, organism-based; settings: THP-1
Trypanosoma cruzi [16] = assay: Trypanocidal activity against Trypanosoma cruzi Y infected in BALB/c mouse assessed as reduction in parasitemia at 25 mg/kg treated from day 2 to day 9 post-infection measured on day 9 post-infection; format: functional, organism-based; parameters: dose 25 mg/kg
Trypanosoma cruzi [17] = assay: Antitrypanosomal activity against Trypanosoma cruzi Y infected in BALB/c mouse peritoneal macrophages assessed as decrease in trypomastigotes release at 16 uM after 120 hrs by Giemsa staining-based Neubauer chamber counting analysis; format: functional, organism-based
Trypanosoma cruzi [18] = assay: Antitrypanosomal activity against Trypanosoma cruzi Y infected in human THP1 cells assessed as reduction of parasite burden after 48 hrs by Giemsa staining-based Neubauer chamber counting analysis; settings: THP-1, 48 h
[19] = Cytotoxicity against BALB/c mouse peritoneal macrophages after 48 hrs by MTT/LDH assay; format: cell-based, Peritoneal macrophage cell
Trypanosoma cruzi [20] = assay: Antitrypanosomal activity against Trypanosoma cruzi Y infected in human THP1 cells assessed as reduction of parasite burden at 32 uM after 48 hrs by Giemsa staining-based Neubauer chamber counting analysis relative to control; format: functional, THP-1; parameters: scale not given: the % may be the effect or the level left
Trypanosoma cruzi [21] = assay: Antitrypanosomal activity against Trypanosoma cruzi Y epimastigotes after 5 days by resazurin dye-based assay; settings: 120 h
Trypanosoma cruzi [22] = assay: Antitrypanosomal activity against Trypanosoma cruzi Y infected in BALB/c mouse peritoneal macrophages assessed as reduction of parasite burden at 32 uM after 48 hrs by Giemsa staining-based Neubauer chamber counting analysis relative to control; format: functional; parameters: scale not given: the % may be the effect or the level left
Trypanosoma cruzi [23] = settings: Y, 32 to 64 uM; remark: listed apart in the source
Description: Inhibition of cysteine peptidase in Trypanosoma cruzi Y epimastigotes at 32 to 64 uM after 12 hrs by gelatin zymography assay

Trypanosoma cruzi [24] = assay: Inhibition of MMP9 in Trypanosoma cruzi Y epimastigotes assessed as effect on protein level at 32 uM after 5 days by Western blotting analysis

Chain of Carbonic anhydrase 1 (P00915 whole entry): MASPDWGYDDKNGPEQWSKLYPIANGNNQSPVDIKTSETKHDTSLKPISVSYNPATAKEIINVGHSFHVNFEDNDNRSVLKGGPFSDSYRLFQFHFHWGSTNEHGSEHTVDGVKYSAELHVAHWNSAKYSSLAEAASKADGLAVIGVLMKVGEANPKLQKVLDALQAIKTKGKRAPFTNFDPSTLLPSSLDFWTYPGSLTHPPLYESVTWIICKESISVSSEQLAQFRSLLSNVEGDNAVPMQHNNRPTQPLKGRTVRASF

- Ki [3]: 365 nM
Compound: CC1(C(=O)NO)CC(c2cccc(Cl)c2)=NO1 (centres undefined)
- growth inhibition (GI) (Trypanosoma cruzi [1]): inactive

- Ki [3]: 615 nM
Compound: CC1(C(=O)NO)CC(c2cccc(Br)c2)=NO1 (centres undefined)
- growth inhibition (GI) (Trypanosoma cruzi [1]): inactive

- Ki [3]: 71.3 nM
Compound: CCOc1ccc(C2=NOC(C(=O)NO)C2)cc1 (centres undefined)
- growth inhibition (GI) (Trypanosoma cruzi [1]): Active

- inhibition (Trypanosoma cruzi [24]): inactive
Compound: C[C@H]1c2cccc(O)c2C(=O)C2=C(O)[C@]3(O)C(=O)C(C(N)=O)=C(O)[C@@H](N(C)C)[C@@H]3[C@@H](O)[C@@H]21

- Ki [3]: 94.1 nM
Compound: CCOc1ccccc1C1=NOC(C(=O)NO)C1 (centres undefined)
- growth inhibition (GI) (Trypanosoma cruzi [1]): Active

Continued, compound first:

Compound: O=C(Cn1ccnc1[N+](=O)[O-])NCc1ccccc1 [BENZNIDAZOLE]
- growth inhibition (GI) (Trypanosoma cruzi [1]): Active
- Survival (Trypanosoma cruzi [2]): 25 days

Compound: CC1(C(=O)NO)CC(c2ccccc2F)=NO1 (centres undefined)
- Ki [3]: 141 nM

Compound: O=C(NO)C1CC(c2ccc(Cl)cc2)=NO1 (centres undefined)
- growth inhibition (GI) (Trypanosoma cruzi [1]): Active
- Ki [3]: 189 nM

Compound: O=C(NO)C1CC(c2cccc(Cl)c2)=NO1 (centres undefined)
- growth inhibition (GI) (Trypanosoma cruzi [1]): Active
- Ki [3]: 267 nM

Compound: CCOc1ccc(C2=NOC(C(=O)NN)C2)cc1 (centres undefined)
- Ki (Carbonic anhydrase 1): > 100 µM
- Ki (Carbonic anhydrase 2): > 100 µM
- Ki [3]: > 100000 nM

Compound: CCOc1ccccc1C1=NOC(C(=O)NN)C1 (centres undefined)
- Ki (Carbonic anhydrase 1): > 100 µM
- Ki (Carbonic anhydrase 2): > 100 µM
- Ki [3]: > 100000 nM

Compound: O=C(NO)C1CC(c2ccccc2)=NO1 (centres undefined)
- growth inhibition (GI) (Trypanosoma cruzi [1]): inactive
- Ki [3]: 428 nM

Compound: CC1(C(=O)NO)CC(c2cccc(F)c2)=NO1 (centres undefined)
- Ki [3]: 182 nM

Compound: O=C(NO)C1CC(c2ccc(OCc3ccccc3)cc2)=NO1 (centres undefined)
- IC50 (Trypanosoma cruzi [4]): 10.4 µM
- IC50 (Trypanosoma cruzi [5]): 9.1 µM
- CC50 at 24 h [6]: 92 µM
- Activity (Trypanosoma cruzi [7]): 100%
- inhibition of growth at 32 µM (Trypanosoma cruzi [1]; 120 h, read-out: GI): 100%
- Activity (Trypanosoma cruzi [8]): 100%
- inhibition (Trypanosoma cruzi [9]): Active
- Survival (Trypanosoma cruzi [10]): 25 days
- inhibition (Trypanosoma cruzi [11]): Active
- IC50 (Trypanosoma cruzi [12]): 5.9 µM
- Activity (Trypanosoma cruzi [13]): inactive
- IC50 (Trypanosoma cruzi [14]): 3.5 µM
- Activity (Trypanosoma cruzi [15]): Active
- Activity (Trypanosoma cruzi [16]): Active
- Activity (Trypanosoma cruzi [17]): Active
- IC50 (Trypanosoma cruzi [18]): < 1000 nM
- CC50 at 48 h [19]: 64 µM
- Activity (Trypanosoma cruzi [20]): 100%
- IC50 (Trypanosoma cruzi [21]): 7 µM
- Activity (Trypanosoma cruzi [22]): 5%
- Ki [3]: 39.8 nM
- inhibition (Trypanosoma cruzi [23]): Active

Compound: O=C(NO)C1CC(c2ccccc2Cl)=NO1 (centres undefined)
- growth inhibition (GI) (Trypanosoma cruzi [1]): Active
- Ki [3]: 263 nM
